Test results published in patent US20250312338A1, “TREATMENT OF NEUROLOGICAL DISORDERS” (Praxis Precision Medicines, Inc., priority 2022, published 2025).
Converted amounts (≈) assume the structure as drawn. “Also recorded” adds a separate entry of the source. Read-outs that look alike come from different tables or passages of the source.

Key:
human NaV1.6 = molecular target: T1, human NaV1.6 (Homo sapiens, UniProt Q9UQD0); assay: Peak INa use dependent block (UDB-10 Hz), PatchXpress patch clamp; type: cell-based; conditions: hNaV1.6
T1 construct: HEK-293 cell lines stably expressing either human NaV1.6 (NP_055006); expressed in transfected cells

male CD-1 mice = assay: Spontaneous locomotor activity (sLMA) test
Experimental: (§2) Male CD-1 mice, 6-weeks old, were obtained from Vital River (Beijing, China). The average body weight was 25-35 g at the time the experiments were carried out. The mice were housed in groups of 3-5 under controlled conditions (temperature: 20-26° C.; humidity: 40-70%; air exchange rate: 10-15 cycles/hour; 12:12 light-dark cycle with lights on at 5:00 a.m.). Food and water were available ad libitum. The mice were acclimated to these conditions for 6 days before the start of the studies.
(§3) Dosing solutions were prepared on each experiment day. […] All solutions were protected from light. Samples from dosing solutions were stored at 4° C. Both compound and vehicle were dosed at 10 ml/kg.
(§4) The sLMA test was carried out over two days. 5 of 10 mice from each treatment group were tested on each day. All animals were marked on the tail with a permanent marker and weighed. Mice were randomly assigned into one of the four treatment groups. Animals were acclimated to the test room at least 30 minutes before the start of the experiment.
(§5) Possible side effects, such as overt sedation, were recorded just before the start of the sLMA test.
(§6) Each mouse was automatically tracked with overhead cameras using a 1-minute sampling window in an isolated chamber. Spontaneous locomotor activity was then analyzed offline using the Animal Behavior Video Tracking Analysis System (Ji Liang Software Technology Co., Ltd., Shanghai, China).
(§7) Locomotor status was defined as >2 mm of movement in every 200 ms (Frame-rate recorded was 20 frames/second. Locomotor status was identified in every 4 frame-to-frame interval. The accumulated shift of tracking spots that exceeded 2 mm in every 4 frame intervals was identified as a locomotor epoch). Traveling distance was calculated automatically from all the locomotion epochs and analyzed.
(§8) All mice were anesthetized with CO2. Then, terminal plasma and brain tissue samples were collected from animals in the drug treatment groups. 500 μL whole blood was collected via cardiac puncture and placed in tubes with 10 μL EDTAK2. The tubes were then placed in wet ice until centrifuged at 2000 g for 5 minutes at 4° C. The supernatant plasma was pipetted into Eppendorf tubes.
(§9) Data are presented as mean±s.e.m., and p<0.05 was regarded as statistically significant.
(§10) Calculating TD50 and TC50 values Dose-response and concentration-response curves for plasma and brain were fitted for each end-point using GraphPad Prism. From these fitted curves, TD50 and TC50 values were calculated.
(§11) Compound 1 and CBZ were prepared individually in 35% HPBCD. […] All solutions were dosed at 10 mL/kg. Just before the start of the sLMA test, possible side effects such as overt sedation were recorde.

in vivo = conditions: male, CD-1, mouse
Experimental: as §2, §3, §4, §5, §6, §7, §8, §9, §10, §11

[1] = Phase 1 single/multiple ascending dose and food effect trial, pharmacokinetics; type: in vivo, human; conditions: for Tmax: human, plasma
Experimental: (§1) This was a 3-part Phase 1 clinical trial in healthy participants aged 18-55 years. Parts A and B were randomized, placebo-controlled and evaluated the effects of single (2.5-150 mg) and multiple (30-120 mg, 14 days QD (every day)) ascending oral doses of Compound 1, respectively. Part C was an open-label, randomized, crossover design evaluating the PK of a single oral dose (90 mg) in fasted and fed states. In Parts A (n=64) and B (n=32), participants were randomized 3:1 to Compound 1 or placebo (n=8/cohort). In Part C (n=16), participants were randomized 1:1 to one of two treatment sequences receiving a single dose of 90 mg Compound 1 in the fed (following a high-fat/high calorie meal) or fasted (>10 hours after the last, and 4 hours before the next, meal) state.

[2] = Open-label study in DEE patients, pharmacokinetics (preliminary data); type: in vivo, human
Excerpt: The purpose of this study is to evaluate the safety and tolerability of Compound 1, to assess the effect of Compound 1 on the frequency of motor seizures, and to characterize the pharmacokinetics (PK) of oral suspension Compound 1 in patients with developmental and epileptic encephalopathies (DEE).
This is an open-label proof of concept study with 3 cohorts of DEE patients (SCN2A, SCN8A, and Tuberous Sclerosis Complex (TSC)) between 2 years old and 17 years old. There will be an 8-week screening period followed by a 16-week treatment period comprised of 8-week dose optimization period and 8-week maintenance period, and a 4-week safety follow-up period or roll-over into LTE. The rationale for 16-week treatment period is based on the current knowledge of Compound 1 pharmacokinetics, which is predicted to potentially take about 6 weeks to achieve 90% steady state. The 8-week dose optimization period allows for adjusting concomitant SCBs and the additional 8 weeks will allow for evaluation of tolerability and efficacy signal during the maintenance period.
Dosing will be guided by preclinical data (targeting concentration between EC50 and EC90 from MES model) and modeling from adult PK data, and duration of dose optimization phase will be predicated on adult PK data. During the dose optimization period, the dose adjustment will be as follows. […]

[3] = Half-life of Compound 1 as stated in dosing guidance of Example 13; conditions: human, in vivo
healthy participants [4] = assay: Phase 1 single/multiple ascending dose and food effect trial, safety and tolerability; type: in vivo, human; conditions: whole trial
Experimental: as §1

healthy participants [5] = assay: Phase 1 28-day trial (Part A 90 mg; Part B OXC + 120 mg), safety and tolerability; type: in vivo, human
Excerpt: (§12) This was a 2-part randomized, placebo-controlled Phase 1 trial in healthy participants aged 18-55 years. […] PD effects were examined on quantitative EEG (qEEG; resting and vigilant conditions) and stimulated EEG using auditory steady state response (ASSR). A total of 48 participants were enrolled; Part A, n=30; Part B, n=18.

[6] = Phase 1 28-day trial (Part A 90 mg; Part B OXC + 120 mg), pharmacokinetics
Excerpt: as §12

[7] = in vivo
Excerpt: as §12

[8] = test system: MES-induced seizures in male CD-1 mice; assay: Maximal electroshock seizure (MES) test; type: in vivo, mouse
Experimental: Food and water were available ad libitum.
VPA was prepared in saline (Vehicle 1). All solutions were protected from light. All compounds and vehicles were dosed at 10 ml/kg.
The MES test was carried out over two days with 6 of 12 mice from each treatment group being tested on each day. Mice were brought to the test room at least one hour before the start of the experiment.
A Grass S88x (Grass Technologies of Astro-Med, Inc., West Warwick, RI) Stimulus Isolation Unit (A385, WPI Inc., USA) was set to deliver a 50 mA square-wave stimulus, with a 0.8 second duration, a pulse width of 10 msec, and a frequency of 50 Hz. A pair of custom stainless steel electrodes were soaked in 0.2% Agar, and then the subject received bilateral transauricular stimulation through ear-clip electrodes. During the stimulation, mice were manually restrained. They were then released into the observation cage for convulsion observation for 60 seconds immediately after stimulation. Each mouse was observed continuously by individuals blinded to treatment conditions and results were recorded.
Anti-seizure assessment endpoints were: (1) latency of hindlimb tonic flexion; (2) latency of hindlimb tonic extension; (3) total #hindlimb tonic flexions; (4) total #hindlimb tonic extensions; (5) latency to death; and (6) mortality rate
From these fitted curves, ED50 and EC50 values were calculated.

T1 sequence (Q9UQD0 whole entry): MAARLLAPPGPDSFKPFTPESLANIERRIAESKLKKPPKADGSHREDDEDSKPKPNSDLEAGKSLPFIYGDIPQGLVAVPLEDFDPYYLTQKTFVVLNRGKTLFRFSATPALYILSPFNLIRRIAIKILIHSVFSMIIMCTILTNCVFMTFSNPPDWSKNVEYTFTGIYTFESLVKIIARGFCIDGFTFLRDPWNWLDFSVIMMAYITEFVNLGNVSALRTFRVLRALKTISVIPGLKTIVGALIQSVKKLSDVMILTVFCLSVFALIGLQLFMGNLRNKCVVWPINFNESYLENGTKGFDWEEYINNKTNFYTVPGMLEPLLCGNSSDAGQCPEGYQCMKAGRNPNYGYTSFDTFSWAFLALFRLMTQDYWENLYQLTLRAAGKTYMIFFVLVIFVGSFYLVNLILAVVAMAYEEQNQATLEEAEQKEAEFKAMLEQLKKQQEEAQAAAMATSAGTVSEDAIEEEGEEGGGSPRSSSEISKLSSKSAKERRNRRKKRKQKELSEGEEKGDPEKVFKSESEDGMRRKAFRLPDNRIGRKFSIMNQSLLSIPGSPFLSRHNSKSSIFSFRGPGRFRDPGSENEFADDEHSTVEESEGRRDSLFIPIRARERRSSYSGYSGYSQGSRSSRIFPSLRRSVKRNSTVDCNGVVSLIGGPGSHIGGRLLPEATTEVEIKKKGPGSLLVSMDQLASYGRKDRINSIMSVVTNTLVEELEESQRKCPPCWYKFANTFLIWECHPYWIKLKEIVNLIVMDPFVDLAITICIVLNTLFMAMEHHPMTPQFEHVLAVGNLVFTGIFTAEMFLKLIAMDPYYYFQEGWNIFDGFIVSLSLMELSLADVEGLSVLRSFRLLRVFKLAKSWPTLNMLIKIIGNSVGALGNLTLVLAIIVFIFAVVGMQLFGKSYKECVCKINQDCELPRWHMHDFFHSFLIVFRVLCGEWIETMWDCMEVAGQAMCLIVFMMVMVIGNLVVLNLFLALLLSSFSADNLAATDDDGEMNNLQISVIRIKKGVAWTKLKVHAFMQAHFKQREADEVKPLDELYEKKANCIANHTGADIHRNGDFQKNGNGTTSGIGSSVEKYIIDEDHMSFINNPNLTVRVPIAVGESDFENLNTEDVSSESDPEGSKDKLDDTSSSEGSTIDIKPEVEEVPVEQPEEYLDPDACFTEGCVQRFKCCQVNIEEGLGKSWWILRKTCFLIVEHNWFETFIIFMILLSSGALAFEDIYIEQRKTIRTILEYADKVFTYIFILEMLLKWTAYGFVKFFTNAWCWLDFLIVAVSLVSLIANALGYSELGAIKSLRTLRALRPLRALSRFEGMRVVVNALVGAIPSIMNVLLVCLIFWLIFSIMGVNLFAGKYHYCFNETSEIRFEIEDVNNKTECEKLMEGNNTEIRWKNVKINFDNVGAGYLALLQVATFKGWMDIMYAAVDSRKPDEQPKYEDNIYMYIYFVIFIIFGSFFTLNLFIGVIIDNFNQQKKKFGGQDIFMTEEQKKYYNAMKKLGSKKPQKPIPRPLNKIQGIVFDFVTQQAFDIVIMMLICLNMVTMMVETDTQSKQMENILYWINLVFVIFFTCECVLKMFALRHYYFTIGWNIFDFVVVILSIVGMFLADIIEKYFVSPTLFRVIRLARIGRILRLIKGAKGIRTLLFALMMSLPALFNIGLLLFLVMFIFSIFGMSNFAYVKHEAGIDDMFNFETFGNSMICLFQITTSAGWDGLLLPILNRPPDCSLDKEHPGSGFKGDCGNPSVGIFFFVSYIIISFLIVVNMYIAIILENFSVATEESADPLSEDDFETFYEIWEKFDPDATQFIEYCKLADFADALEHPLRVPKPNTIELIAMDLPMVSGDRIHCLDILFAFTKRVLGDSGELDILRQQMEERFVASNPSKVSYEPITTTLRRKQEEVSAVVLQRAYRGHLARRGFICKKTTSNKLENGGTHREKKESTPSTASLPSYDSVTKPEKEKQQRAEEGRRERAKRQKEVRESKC

SMILES: NC(=O)O[C@@H](Cn1ncnn1)c1ccccc1Cl [Cenobamate]
- Ratio to Peak INa (TB) (TB / UDB-10 Hz) (human NaV1.6): 2.3

SMILES: CCOC(F)(F)c1nnc2cnc(-c3cnc(OCC(F)(F)F)c(F)c3)cn12 [Compound 1]
- effect on locomotor function (male CD-1 mice; 10 mg/kg): no effect
- total traveling distance in the 30-minute sLMA test (male CD-1 mice; 20 and 40 mg/kg p.o.): significantly reduced; also recorded: reductions
- TC50 (free brain) Tolerability (sLMA) (male CD-1 mice; free brain concentration): 69.7 nM
- TC50 in brain, free (sLMA) (male CD-1 mice; free brain concentration): 69.7 nmol/L
- TC50 in plasma, free (sLMA) (male CD-1 mice; free plasma concentration): 308.9 nmol/L
- TC50 in brain (sLMA) (male CD-1 mice; total brain concentration): 1899 ng/g
- TC50 in plasma (sLMA) (male CD-1 mice; total plasma concentration): 1553 ng/mL (≈ 3.81 µM)
- EC50 (in vivo; plasma (free concentration), oral): 0.309 µM
- increase in AUC, fed vs fasted ([1]; 90 mg single dose): 14%
- increase in Cmax, fed vs fasted ([1]; 90 mg single dose): 9%
- Tmax ([1]; oral, 90 mg, 90 mg single dose, fasted, read-out: tmax, fasted state): 2.5 h
- Tmax ([1]; oral, 90 mg, 90 mg single dose, fed, read-out: tmax, fed state): 4 h
- Tmax ([1]; po, healthy adults, read-out: time to observed maximum concentration (tmax)): 2 to 3 h
- exposure vs dose ([1]; over the evaluated dose range): increased dose proportionally
- approach to steady state ([2]; after 28 days of once daily dosing and auto-titration): approaches steady state
- Compound 1 exposures on Day 1 (after single dose) ([2]; first 12 DEE participants, preliminary): above therapeutic range; also recorded: above predicted therapeutic levels
- half-life [3]: ~4 days
- TEAEs that were mild (healthy participants [4]): > 92%
- TEAEs mild or moderate (healthy participants [5]; Part A): 100%
- TEAEs moderate in severity (healthy participants [5]; Part A): 29%
- tolerability in healthy adults (healthy participants [5]; Part A, 90 mg): well tolerated
- TEAEs mild in severity (healthy participants [5]; Part A, 90 mg QD 28 days vs placebo, 35 TEAEs across 13 participants): 71%
- review of ALT/AST increases and rhabdomyolysis (healthy participants [5]; Part B): did not identify a causal association
- increase in Compound 1 concentrations over the human-equivalent dose required for efficacy in preclinical MES models [6]: 13 fold
- approach to steady state ([6]; 90 mg for 28 days): approached steady state

SMILES: NC(=O)N1c2ccccc2CC(=O)c2ccccc21 [Oxcarbazepine, reference compound]
- exposure when administered concomitantly with Compound 1 vs alone [7]: similar
- patients in whom TEAEs were observed (healthy participants [5]; Part B, per arm): 75%

SMILES: Nc1nnc(-c2cccc(Cl)c2Cl)c(N)n1 [Lamotrigine]
- use-dependent block of peak INa (in words) (human NaV1.6; stimulation frequency 10 Hz): not observed
- EC50 (in vivo; in vivo): 20.5 µM
- mice protected from MES-induced tonic hindlimb seizures ([8]; 10 mg/kg): eight of 12

SMILES: NC(=O)N1c2ccccc2CC(O)c2ccccc21 (stereo not shown) [10-Hydroxycarbamezapine]
- exposure when administered concomitantly with Compound 1 vs alone [7]: similar

SMILES: NC(=O)N1c2ccccc2C=Cc2ccccc21 [Carbamazepine]
- sLMA at the dose required for complete seizure prevention (male CD-1 mice; mouse, in vivo): significant reduction
- use-dependent block of peak INa (in words) (human NaV1.6; frequency increased to 30 Hz or 50 Hz): could be observed
- use-dependent block of peak INa (in words) (human NaV1.6; stimulation frequency 10 Hz): not observed
- EC50 (in vivo; in vivo): 19 µM
- mice protected from MES-induced tonic hindlimb seizures ([8]; 30 mg/kg): all mice
